Data from US20260355165A1, “2,3,4,9-TETRAHYDRO-1H-PYRIDO[3,4-B]INDOLE DERIVATIVES AS ESTROGEN RECEPTOR MODULATORS FOR THE TREATMENT OF CANCER” (Olema Pharmaceuticals, Inc., priority 2022, published 2026).

Molecular target: T1, estrogen receptor (Homo sapiens, UniProt P03372)
T1 construct: endogenous in cells; host or cells: ECC-1 cells
T1 sequence (P03372 1-595): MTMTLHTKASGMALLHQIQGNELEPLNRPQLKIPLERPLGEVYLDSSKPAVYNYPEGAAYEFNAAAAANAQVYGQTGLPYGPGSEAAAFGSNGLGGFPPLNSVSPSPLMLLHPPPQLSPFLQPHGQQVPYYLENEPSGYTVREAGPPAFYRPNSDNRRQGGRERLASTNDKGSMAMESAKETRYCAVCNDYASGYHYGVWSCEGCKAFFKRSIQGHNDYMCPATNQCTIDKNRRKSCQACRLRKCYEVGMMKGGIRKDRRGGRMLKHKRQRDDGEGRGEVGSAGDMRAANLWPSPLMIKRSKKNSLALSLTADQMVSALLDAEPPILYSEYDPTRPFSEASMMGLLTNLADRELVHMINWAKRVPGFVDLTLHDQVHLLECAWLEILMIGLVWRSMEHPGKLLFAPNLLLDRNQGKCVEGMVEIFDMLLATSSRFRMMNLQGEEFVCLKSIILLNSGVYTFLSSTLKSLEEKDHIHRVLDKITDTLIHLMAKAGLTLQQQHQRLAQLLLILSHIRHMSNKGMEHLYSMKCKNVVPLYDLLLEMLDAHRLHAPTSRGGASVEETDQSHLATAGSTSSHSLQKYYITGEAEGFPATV
Experiment: AP assay (alkaline phosphatase activity in ECC-1 cells), agonist mode (absence of E2) and antagonist mode (presence of 500 pM E2)
Assay type: cell-based
Details: 3 days, AP activity normalized to 500 pM E2 alone, agonist and antagonist mode combined
Protocol: ECC-1 cells were trypsinized and resuspended in hormone-depleted media and plated at a density of 15 k cells per well into a 96-well plate for at least 4 hours. Cells were treated with test compounds in the absence of E2 (for agonist mode) or in the presence of 500 pM E2 (for antagonist mode) for 3 days and plates were subsequently frozen at −80 °C. Thawed plates were incubated with a chromogenic substrate of AP, p-nitrophenyl phosphate (Thermo Fisher Scientific), for 40 minutes at 42 °C, and absorbances were read at 405 nm. AP activity was normalized to the activity of 500 pM E2 alone.
The compound numbers correspond to the compound numbers of Table 1 and 2. Compounds having an activity designated as “+” provided estrogen receptor agonism having (i) at least 80% increase in the E2-normalized signal in the AP assay (agonist mode) and (ii) no more than 80% reduction in the E2-normalized signal in the AP assay (antagonist mode). Compounds having an activity designated as “++” provided estrogen receptor antagonism having (i) between 10% and 80% increase in the E2-normalized signal in the AP assay (agonist mode) and (ii) between 10% and 80% reduction in the E2-normalized signal in the AP assay (antagonist mode).

Row | SMILES | Activity (estrogen receptor modulation, e.g., agonism and antagonism)
1 | C[C@@H]1Cc2c([nH]c3ccccc23)[C@@H](c2c[nH]c3c(F)c(CN4CC(CF)C4)ccc23)N1CC(C)(C)F [Compound I-29, (1R,3R)-1-[7-fluoro-6-[[3-(fluoromethyl)azetidin-1-yl]methyl]-1H-indol-3-yl]-2-(2-fluoro-2-methyl-propyl)-3-methyl-1,3,4,9-tetrahydropyrido[3,4-b]indole] | ++ (estrogen receptor antagonism having (i) between 10% and 80% increase in the E2-normalized signal in the AP assay (agonist mode) and (ii) between 10% and 80% reduction in the E2-normalized signal in the AP assay (antagonist mode))
2 | C[C@@H]1Cc2c([nH]c3ccccc23)[C@@H](c2ccc3oc(CN4CCC45CC(F)(F)C5)cc3c2)N1CC(C)(C)F [Compound I-58, (1R,3R)-1-[2-[(6,6-difluoro-1-azaspiro[3.3]heptan-1-yl)methyl]benzofuran-5-yl]-2-(2-fluoro-2-methyl-propyl)-3-methyl-1,3,4,9-tetrahydropyrido[3,4-b]indole] | + (estrogen receptor agonism having (i) at least 80% increase in the E2-normalized signal in the AP assay (agonist mode) and (ii) no more than 80% reduction in the E2-normalized signal in the AP assay (antagonist mode))
3 | C[C@@H]1Cc2c([nH]c3ccccc23)[C@@H](c2cc3nc(CN4CC(CF)C4)oc3cc2F)N1CC(C)(C)F [Compound I-78, 6-fluoro-2-[[3-(fluoromethyl)azetidin-1-yl]methyl]-5-[(1R,3R)-2-(2-fluoro-2-methyl-propyl)-3-methyl-1,3,4,9-tetrahydropyrido[3,4-b]indol-1-yl]-1,3-benzoxazole] | + (estrogen receptor agonism having (i) at least 80% increase in the E2-normalized signal in the AP assay (agonist mode) and (ii) no more than 80% reduction in the E2-normalized signal in the AP assay (antagonist mode))
4 | C[C@@H]1Cc2c([nH]c3ccccc23)[C@@H](c2ccc3[nH]c(CN4CC(F)C4)cc3c2)N1CC(C)(C)F [Compound I-90, (1R,3R)-1-[2-[(3-fluoroazetidin-1-yl)methyl]-1H-indol-5-yl]-2-(2-fluoro-2-methyl-propyl)-3-methyl-1,3,4,9-tetrahydropyrido[3,4-b]indole] | + (estrogen receptor agonism having (i) at least 80% increase in the E2-normalized signal in the AP assay (agonist mode) and (ii) no more than 80% reduction in the E2-normalized signal in the AP assay (antagonist mode))
5 | CC1CN(Cc2cnc3[nH]cc([C@@H]4c5[nH]c6ccccc6c5C[C@@H](C)N4CC(C)(C)F)c3c2)C1 [Compound I-59, (1R,3R)-2-(2-fluoro-2-methyl-propyl)-3-methyl-1-[5-[(3-methylazetidin-1-yl)methyl]-1H-pyrrolo[2,3-b]pyridin-3-yl]-1,3,4,9-tetrahydropyrido[3,4-b]indole] | + (estrogen receptor agonism having (i) at least 80% increase in the E2-normalized signal in the AP assay (agonist mode) and (ii) no more than 80% reduction in the E2-normalized signal in the AP assay (antagonist mode))
6 | C[C@@H]1Cc2c([nH]c3ccccc23)[C@@H](c2ccc3[nH]c(CN4CC(CF)C4)cc3n2)N1CC(C)(C)F [Compound I-70, (1S,3R)-1-[2-[[3-(fluoromethyl)azetidin-1-yl]methyl]-1H-pyrrolo[3,2-b]pyridin-5-yl]-2-(2-fluoro-2-methyl-propyl)-3-methyl-1,3,4,9-tetrahydropyrido[3,4-b]indole] | + (estrogen receptor agonism having (i) at least 80% increase in the E2-normalized signal in the AP assay (agonist mode) and (ii) no more than 80% reduction in the E2-normalized signal in the AP assay (antagonist mode))
